Experimental data as given in patent US20120149708A1, “MODULATORS OF VIRAL TRANSCRIPTION, AND METHODS AND COMPOSITIONS THEREWITH” (George Mason University, priority 2010, published 2012).

What was measured:
[1] = tested on: HIV-1; details: T-cells, monocytes, and peripheral blood mononuclear cells; cited from earlier work
[2] = tested on: HIV-1 transcription; assay: HIV-1 transcription inhibition in T-cells and monocytes; format: cell-based; details: T-cells versus monocytes
[3] = tested on: OM10.1 cells (HIV-1 infected); assay: Cell viability by trypan blue exclusion, 48 hours; format: cell-based; details: Human immunodeficiency virus 1; 50 nM, 48 hrs, HIV-1 infected; read-out: Inhibition Percentage OM10.1
Method: (§1) In brief, the inhibition studies were carried out as follows. HIV-1 infected cells ACH2, J1.1, OM10.1, U1 and uninfected CEM, Jurkat T-cells, and U937 were cultured in media. The appropriate inhibitor was added at a concentration of 10 μM. Cells were treated for 48 hours and cell viability was determined using trypan blue exclusion method. Results of such a screen for 19 inhibitors is shown in Table 1 where percent dead cells are indicated each drug tested.
(§2) Again HIV-1 infected and uninfected cells were treated with eighteen Formula I compounds at a drug concentration of 50 nm. Forty-eight hours after treatment, cytotoxicity was determined by trypan blue dye exclusion. Percent inhibition was calculated after obtaining the cell density for each well of the tissue culture plate at the end of 48 hrs.

[4] = tested on: J1.1 cells (HIV-1 infected); assay: Cell viability by trypan blue exclusion, 48 hours; format: cell-based; details: 50 nM, 48 hrs, HIV-1 infected
Method: as §1, §2

[5] = tested on: U1 cells (HIV-1 infected); assay: Cell viability by trypan blue exclusion, 48 hours; format: cell-based; details: 50 nM, 48 hrs, HIV-1 infected
Method: as §1, §2

[6] = tested on: infected ACH2, J1.1, OM10.1, U1 cells; assay: MTT assay, infected cells; format: cell-based; details: 50 nm and 10 μM
Method: (§3) FIGS. 1 and 2 show screening results of CR8 derivatives on Tat-dependent transcription HIV-1 LTR. […] TZM-bl cells were transfected with 1 ug of Tat and treated the next day with DMSO, or the indicated CR8 derivative compounds at 50 nm. 48 hrs-post drug treatment, luciferase activity of the firefly luciferase was measured with the BrightGlo Luciferase Assay and luminescence was read from a 96 well plate on an EG&G Berthold luminometer. Assays were performed in triplicate, average and standard deviations are shown.
(§4) Quantitative MTT assays were performed (FIG. 2), to further validate the cell growth inhibitory activity of certain Formula I compounds. In this study, cultured, infected ACH2, J1.1, OM10.1, U1 and uninfected CEM, Jurkat T-cells, and U937 cells were brought in contact with Formula I compounds CR8, MRT-033, and BJFP1154 (CR8#13). Cell growth inhibition study was performed at two different concentrations of the inventive compounds, a low concentration of 50 nm, and high concentration of 10 μM.

[7] = tested on: HIV-1 infected and uninfected cells; assay: Classification of inhibitors by effect on viability of infected versus uninfected cells; format: cell-based; details: 50 nM; high, moderate or poor
Source text: The inhibitors were classified into three categories: high, moderate or poor, according to their effect on cellular viability in both HIV-1 infected and uninfected cells. Among the compounds tested in this study, CR8, a purine analog bearing a 2-pyridyl group para to the phenyl ring position 6 of the purine was the most promising drug candidate that killed HIV-1 infected cells, while having little or no effect on the death of uninfected cells.

[8] = tested on: Jurkat T-cells (uninfected); assay: Cell viability by trypan blue exclusion, 48 hours; format: cell-based; details: Homo sapiens, Jurkat, 50 nM, 48 hrs, read-out: Inhibition Percentage Jurkat
Method: (§5) TZM-bl cell lines were grown in Dulbecco's modified Eagle's medium supplemented with fetal bovine serum (FBS) (10%, v/v), 2 mM L-glutamine, and antibiotics (penicillin 100 U/ml, streptomycin […]) (cDMEM). HCT116 WT and HCT116 Dicer−/−cell lines were grown in McCoy's medium supplemented with FBS (10%, v/v), 2mM L-glutamine, and antibiotics (penicillin 100 U/ml, streptomycin […]). CEM, ACH2, Jurkat and U937 cells were grown in RPMI 1640 supplemented with FBS, L-glutamine, and antibiotics (penicillin 100 U/ml, streptomycin […]). All cell lines were maintained at 37° C. in 5% (v/v) CO2. […]
as §1, §2

[9] = tested on: ACH2 cells (HIV-1 infected); assay: Cell viability by trypan blue exclusion, 48 hours; format: cell-based; details: Human immunodeficiency virus 1, ACH-2, 48 h, read-out: Inhibition Percentage ACH2, 50 nM, 48 hrs, HIV-1 infected
Method: as §5, §1, §2

[10] = tested on: uninfected CEM, Jurkat T-cells, and U937 cells; assay: MTT assay, uninfected cells; format: cell-based; details: 50 nm and 10 μM
Method: as §3, §4

[11] = tested on: CEM cells (uninfected); assay: Cell viability by trypan blue exclusion, 48 hours; format: cell-based; details: 50 nM, 48 hrs
Method: (§6) TZM-bl cell lines were grown in Dulbecco's modified Eagle's medium supplemented with fetal bovine serum (FBS) (10%, v/v), 2 mM L-glutamine, and antibiotics (penicillin 100 U/ml, streptomycin […]) (cDMEM). HCT116 WT and HCT116 Dicer−/−cell lines were grown in McCoy's medium supplemented with FBS (10%, v/v), 2mM L-glutamine, and antibiotics (penicillin 100 U/ml, streptomycin […]). CEM, ACH2, Jurkat and U937 cells were grown in RPMI 1640 supplemented with FBS, L-glutamine, and antibiotics (penicillin 100 U/ml, streptomycin […]). All cell lines were maintained at 37° C. in 5% (v/v) CO2.
(§7) ACH2 cells are infected with HIV-1; TZM-bl cells contain a stably-integrated HIV-1 LTR-Luciferase reporter; CEM, Jurkat, and U937 cells are uninfected. Transfections were carried out using Attractene (Qiagen) lipid reagent. Cells were cultured to confluence and pelleted at 4° C. for 15 min at 3,000 rpm. The cell pellets were washed twice with 25 ml of phosphate-buffered saline (PBS) with Ca2+ and Mg2+ (Quality Biological) and centrifuged once more. Cell pellets were resuspended in lysis buffer (50 mM Tris-HCl, pH 7.5, 120 mM NaCl, 5 mM EDTA, 0.5%, v/v, NP-40, 50 mM NaF, 0.2 mM Na3VO4, 1 mM DTT, one complete protease cocktail tablet/50 ml (Roche) and incubated on ice for 20 min, with gentle vortexing every 5 min. Cell lysates were transferred to eppendorf tubes and were centrifuged at 10,000 rpm for 10 min. Supernatants were transferred to a fresh tube where protein concentrations were determined using Bio-Rad protein assay (Bio-Rad, Hercules, Calif.).
as §1, §2

[12] = tested on: U937 cells (uninfected); assay: Cell viability by trypan blue exclusion, 48 hours; format: cell-based; details: Homo sapiens, U-937, 50 nM, 48 hrs, read-out: Inhibition Percentage U937
Method: as §6, §7, §1, §2

[13] = tested on: HIV-1 (pNL4.3) in Jurkat T-cells; assay: Reverse transcriptase assay of supernatants, pNL4.3 electroporated cells; format: cell-based; details: Flavopiridol 200 nm, CR8 100 nm, CR8#13 50 nm, 48 hours
Method: (§8) Jurkat T-cell and promonocytic U937 cells were electroporated with 5 μg pNL4.3 followed the next day by drug treatment of Flavopiridol (200 nm), CR8 (100 nm) or CR8#13 (50 nm). Cell supernatants were collected at 48 hours post drug treatment. Viral supernatants (10 μl) were incubated in a 96-well plate with reverse transcriptase (RT) reaction mixture overnight at 37° C., and 10 μl of the reaction mix was spotted on a DEAE Filtermat paper, washed with 5% (w/v) Na2HPO4 followed by water wash, and then dried completely. RT activity was measured in a Betaplate counter.
(§9) For electroporations, Jurkat and U937 cells were resuspended at 3 million cells in 250 μl of RPMI. Five microgram of pNL4-3 was then added to the cell suspension. Cells were pulsed a single time at 210V, 800 μF, and low resistance. Electroporated cells were immediately transferred to RPMI-1640 with L-glutamine and Penicillin/Streptomycin with 10% (v/v) FBS and plated in 6 well plates. Twenty four hours-post electroporation, cells were treated with drugs for additional 48 hrs and harvested for RT analysis. RT assays were performed as described in ((Guendel et al. 2009; Easley et al. 2010).
(§10) The present inventors examined whether Formula I, or Formula II compounds were effective inhibiting viral transcription in cell lines infected with an HIV-1 construct. Thus, Jurkat T-cells and promonocytic U937 cells were transfected with pNL4.3 and then treated with Flavopiridol, CR8 and CR8#13. Similar to monocytes, the Dicer levels are low to undetectable in promonocytic cells (FIG. 6) and was detectable only when these cells had differentiated into macrophages with PMA treatment.
(§11) Following drug treatment cell supernatants were collected and processed for exogenous reverse transcriptase (RT) levels.

[14] = tested on: HIV-1 (pNL4.3) in promonocytic U937 cells; assay: as above; format: cell-based; details: Flavopiridol 200 nm, CR8 100 nm, CR8#13 50 nm, 48 hours
Method: as §8, §9, §10, §11

[15] = tested on: 3′TAR and 5′TAR microRNA; assay: Poly-A RT-PCR of TAR microRNA in TZM-bl cells with or without TSA; format: cell-based, HIV-1
Method: RNA was extracted 48 hrs-post drug treatment. 500 ng of RNA from the microRNA-enriched fraction was used to generate cDNA using the Quantimir kit (SBI) in order to poly adenylate small RNA species. RT reactions were performed followed by PCR in which a universal reverse primer was provided by the manufacturer. Specific microRNA forward primers are identical in sequence to the microRNA of interest. PCR products corresponding to the amplified microRNAs were separated in a 3.5% (w/v) agarose gel. The PCR products are at around 67 bp as compared with the Fermentas 1 kb DNA Plus Ladder. Increased levels of 3′TAR microRNA were produced post CR8#13 treatment.
For poly-A RT-PCR detection of microRNAs, 500 ng of RNA from the microRNA-enriched fraction was used to generate cDNA using the Quantimir kit (SBI) according to the manufacturer's protocol. Briefly, small RNA species are poly-adenylated and then reverse transcription reactions are performed with a company-provided RT primer. For PCR, a universal reverse primer is provided by the manufacturer. Specific microRNA forward primers are identical in sequence to the microRNA of interest. PCR products corresponding to the amplified microRNAs were separated in a 3.5% (w/v) agarose gel and quantified using the Kodak 1D software.
To determine whether the cdk inhibitors Flavopiridol, CR8, and CR8#13 increased levels of TAR microRNA in the TSA-treated and control TZM-bl cells total RNA was extracted from both TSA treated and control cells treated with Flavopiridol, CR8, and CR8#13 and processed for RT-PCR detection of microRNAs, specifically, for the presence of 3′TAR and 5′TAR molecules.

[16] = tested on: HIV-1 LTR-CAT reporter; assay: CAT assay of Tat-mediated transactivation in HCT116 WT and Dicer-/- cells; format: cell-based; details: HCT116 WT (Dicer) versus Dicer-/-; 48 hrs; Flavopiridol, CR8#13, F07#13 100 nm, 9AA 1000 nm
Method: Six hours later, the transfected cells were treated with DMSO, Flavopirodol (100 nm), CR8#13 (100 nm), F07#13 (100 nm), and 9AA (1000 nm). Treated cells were incubated in complete DMEM for 48 hrs at 37° C. Cells were harvested and cell extracts were used for CAT analysis. One tenth the amount of HCT116 Dicer−/−extract compared to HCT116 WT was used for CAT analysis. […] The corresponding bar graphs in A and B show values that represent the percentage of conversion of the [14C] chloramphenicol substrate in the CAT assay.
Various cells lines were transfected with the HIV-1 LTRCAT plasmid and pc-Tat to initiate the LTR transcription, and subsequently subjected to various drug treatments. After 48 hrs, cells were lysed and CAT assays were performed as previously described (Guendel et al, 2009; Van Duyne et al, 2008; Easley et al, 2010).
To evaluate the role on microRNA machinery in inhibition of viral transcription activity, HCT116 colon carcinoma cell lines that either contained a WT Dicer (HCT116 WT) or lacked the Dicer protein (HCT116 Dicer-−/−) were first transfected with the HIV-1 LTR-CAT reporter construct. The HIV-1 LTR transcription was activated with pc-Tat and following incubation for 6 hours was treated with DMSO (negative control), Flavopiridol (positive control), CR8#13, F07#13, or 9AA.
Cells were harvested 48 hrs-post treatment and processed for CAT assays (FIGS. 3A and B). […] Based on this observation the inventors hypothesize that the microRNA machinery, Dicer and Drosha, plays an inhibitory role in HIV-1 transcription.

## CC[C@@H](CO)Nc1nc(NCc2ccc(-c3ccccn3)cc2)c2ncn(C(C)C)c2n1 [Cyc202]
[1]
  inhibition of HIV-1 (IC50): low IC50
[2]
  inhibition of transcription: effectively inhibited transcription in T-cells but not in monocytes

## CC[C@H](CO)Nc1nc(NCc2ccc(-c3ccccn3)cc2)n2ncc(C(C)C)c2n1.O=C(O)/C=C/C(=O)O [MRT-033, R-2-(8-isopropyl-4-(4-(pyridine-2-yl)benzylamino)pyrazolo[1,5-α]-1,3,5-triazine-2-ylamino)butan-1-ol]
[3]
  inhibition at 0.05 µM: 75%
[4]
  Inhibition Percentage J1.1: ++ (~50%)
[5]
  Inhibition Percentage U1: ++ (~50%)
[6]
  cell killing of infected cells (MTT): significant cell killing of infected cells over uninfected cells
[7]
  Selectivity: High
[8]
  inhibition at 0.05 µM: 50%
[9]
  inhibition at 0.05 µM: 90%
[10]
  cell inhibition of uninfected cells (MTT): some cell inhibition activity of uninfected cells
[11]
  Inhibition Percentage CEM: + (~25%)
[12]
  inhibition at 0.05 µM: 90%

## CN1CC[C@H](c2c(O)cc(O)c3c(=O)cc(-c4ccccc4Cl)oc23)[C@H](O)C1 [Flavopiridol]
[13]
  RT levels in supernatant: able to decrease RT levels in both cell lines
[14]
  RT levels in supernatant: able to decrease RT levels in both cell lines
[15]; TZM-bl cells treated with TSA for 7 days, then drug
  3′ and 5′ TAR microRNA amount: higher amounts of both 3′ and 5′ TAR microRNA
[15]; non-TSA treated TZM-bl cells, Flavopiridol 50 nm, CR8 100 nm, CR8#13 100 nm
  3′ TAR microRNA amount: significantly increased amount of the 3′ TAR microRNA
[16]
  inhibition of viral transcription (CAT): inhibited viral transcription significantly better in cells that contained Dicer
